Laboratory results published in US20080132505A1 (Glaxo Group Limited, priority 2004, published 2008).
Like-named read-outs stand apart in the source and are kept apart here.

Biological target: human cannabinoid CB2 receptor (Homo sapiens, UniProt P34972)
Experiment: Cannabinoid CB2 receptor agonist activity (yeast reporter assay, FDGlu fluorescence)
Type: cell-based
Details: for Emax: read-out: efficacy value (Emax relative to HU210) at the cloned human cannabinoid CB2 receptor
Summary of the method: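 Agonist-driven growth was read as fluorescein fluorescence (ex 485, em 535 nm) from FDGlu cleavage after 24 h at 30 °C, using yeast strain MMY23 carrying human CB2 and chimeric Gpa1/Gαi3. Medium had 10 mM 3-aminotriazole, pH 7.0; four-parameter fits gave EC50, with Emax and EMR versus HU210.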

[1] = EC50 value at the cloned human cannabinoid CB2 receptor

Sequence of human cannabinoid CB2 receptor (P34972 whole entry): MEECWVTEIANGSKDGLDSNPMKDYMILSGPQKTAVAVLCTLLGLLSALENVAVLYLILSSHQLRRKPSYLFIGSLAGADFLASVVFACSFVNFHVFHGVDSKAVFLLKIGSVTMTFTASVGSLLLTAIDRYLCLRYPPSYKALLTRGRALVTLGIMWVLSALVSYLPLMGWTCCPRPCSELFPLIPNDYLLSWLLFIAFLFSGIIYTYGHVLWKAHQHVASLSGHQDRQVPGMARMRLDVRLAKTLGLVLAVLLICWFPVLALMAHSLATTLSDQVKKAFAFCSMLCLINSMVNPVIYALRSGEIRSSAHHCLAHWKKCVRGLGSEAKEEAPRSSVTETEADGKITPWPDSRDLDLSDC

Row | SMILES | EC50 [1] | Emax | EC50 (read-out: EC50 value at the cloned human cannabinoid CB2 receptor)
1 | O=C(NCC1CCCCC1)c1cnc(Nc2cccc(Cl)c2F)nc1C(F)(F)F [Example 167, 2-(3-Chloro-2-fluorophenylamino)-4-trifluoromethyl-pyrimidine-5-carboxylic acid cyclohexylmethyl-amide] | 20 to 300 nM | > 50% | 
2 | O=C(NCC1CCCCC1)c1cnc(Nc2cc(Cl)ccc2F)nc1C(F)(F)F [Example 168, 2-(5-Chloro-2-fluorophenylamino)-4-trifluoromethyl-pyrimidine-5-carboxylic acid cyclohexylmethyl-amide] | 20 to 300 nM | > 50% | 
3 | O=C(NCC1CCCCC1)c1cnc(Nc2cc(F)cc(F)c2)nc1C(F)(F)F [Example 169, 2-(3,5-Difluorophenylamino)-4-trifluoromethyl-pyrimidin-5-carboxylic acid cyclohexylmethyl-amide] | 20 to 300 nM | > 50% | 
4 | O=C(NCC1CCCCC1)c1cnc(Nc2ccc(Cl)cc2C(F)(F)F)nc1C(F)(F)F [Example 170, 2-(4-Chloro-2-trifluoromethylphenylamino)-4-trifluoromethyl-pyrimidine-5-carboxylic acid cyclohexylmethyl-amide] | 20 to 300 nM | > 50% | 
5 | N#Cc1cccc(Nc2ncc(C(=O)NCC3CCCCC3)c(C(F)(F)F)n2)c1 [Example 171, 2-(3-Cyanophenylamino)-4-trifluoromethyl-pyrimidine-5-carboxylic acid cyclohexylmethyl-amide] | 20 to 300 nM | > 50% | 
6 | N#Cc1cccc(Nc2ncc(C(=O)NCC3CCOCC3)c(C(F)(F)F)n2)c1 [Example 172, 2-(3-Cyanophenylamino)-4-trifluoromethyl-pyrimidine-5-carboxylic acid (tetrahydropyran-4-ylmethyl)-amide] | 20 to 300 nM | > 50% | 
7 | N#Cc1cccc(Nc2ncc(C(=O)NCC3CCCC3)c(C(F)(F)F)n2)c1 [Example 173, 2-(3-Cyanophenylamino)-4-trifluoromethyl-pyrimidine-5-carboxylic acid cyclopentylmethyl-amide] | 20 to 300 nM | > 50% | 
8 | N#Cc1ccc(Nc2ncc(C(=O)NCC3CCCCC3)c(C(F)(F)F)n2)cc1 [Example 174, 2-(4-Cyanophenylamino)-4-trifluoromethyl-pyrimidine-5-carboxylic acid cyclohexylmethyl-amide] |  |  | 20 to 300 nM
9 | N#Cc1ccc(Nc2ncc(C(=O)NCC3CCOCC3)c(C(F)(F)F)n2)cc1 [Example 175, 2-(4-Cyanophenylamino)-4-trifluoromethyl-pyrimidine-5-carboxylic acid (tetrahydropyran-4-ylmethyl)-amide] | 20 to 300 nM | > 50% | 
10 | COc1cc(Nc2ncc(C(=O)NCC3CCOCC3)c(C(F)(F)F)n2)cc(C(F)(F)F)c1 [Example 177, 2-(3-Methoxy-5-(trifluoromethyl)phenylamino)-4-trifluoromethyl-pyrimidine-5-carboxylic acid (tetrahydropyran-4-ylmethyl)-amide] | 20 to 300 nM | > 50% | 
11 | O=C(NCC1CCOCC1)c1cnc(Nc2cc(C(F)(F)F)cc(C(F)(F)F)c2)nc1C(F)(F)F [Example 178, 2-(3,5-Bis-trifluoromethylphenylamino)-4-trifluoromethyl-pyrimidine-5-carboxylic acid (tetrahydropyran-4-ylmethyl)-amide] | 20 to 300 nM | > 50% | 
12 | O=C(NCC1CCOCC1)c1cnc(Nc2cc(Br)cc(C(F)(F)F)c2)nc1C(F)(F)F [Example 179, 2-(3-Bromo-5-(trifluoromethyl)phenylamino)-4-trifluoromethyl-pyrimidine-5-carboxylic acid (tetrahydropyran-4-ylmethyl)-amide] | 20 to 300 nM | > 50% | 
13 | O=C(NCC1CCOCC1)c1cnc(Nc2cc(F)cc(C(F)(F)F)c2)nc1C(F)(F)F [Example 180, 2-(3-Fluoro-5-(trifluoromethyl)phenylamino)-4-trifluoromethyl-pyrimidine-5-carboxylic acid (tetrahydropyran-4-ylmethyl)-amide] | 20 to 300 nM | > 50% | 
14 | O=C(NCC1CCOCC1)c1cnc(Nc2cccc(C(F)(F)F)c2F)nc1C(F)(F)F [Example 181, 2-(2-Fluoro-3-(trifluoromethyl)phenylamino)-4-trifluoromethyl-pyrimidine-5-carboxylic acid (tetrahydropyran-4-ylmethyl)-amide] | 20 to 300 nM | > 50% | 
15 | CSc1c(Nc2ncc(C(=O)NCC3CCOCC3)c(C(F)(F)F)n2)cccc1C(F)(F)F [Example 182, 2-(2-Methylthio-3-(trifluoromethyl)phenylamino)-4-trifluoromethyl-pyrimidine-5-carboxylic acid (tetrahydropyran-4-ylmethyl)-amide] | 20 to 300 nM | > 50% | 
16 | Cc1ccc(Cl)cc1Nc1ncc(C(=O)NCC2CCCC2)c(C(F)(F)F)n1 [Example 183, 2-(5-Chloro-2-methylphenylamino)-4-trifluoromethyl-pyrimidine-5-carboxylic acid (cyclopentylmethyl)-amide] | 20 to 300 nM | > 50% | 

Row | SMILES | EC50 [1] | Emax | EC50 (read-out: EC50 value at the cloned human cannabinoid CB2 receptor)
17 | Cc1ccc(Nc2ncc(C(=O)NCC3CCOCC3)c(C(F)(F)F)n2)cc1Cl [Example 184, 2-(3-Chloro-4-methylphenylamino)-4-trifluoromethyl-pyrimidine-5-carboxylic acid (tetrahydropyran-4-ylmethyl)-amide] | 20 to 300 nM | > 50% | 
18 | Cc1c(Cl)cccc1Nc1ncc(C(=O)NCC2CCOCC2)c(C(F)(F)F)n1 [Example 185, 2-(3-Chloro-2-methylphenylamino)-4-trifluoromethyl-pyrimidine-5-carboxylic acid (tetrahydropyran-4-ylmethyl)-amide] | 20 to 300 nM | > 50% | 
19 | COc1cc(Nc2ncc(C(=O)NCC3CCOCC3)c(C(F)(F)F)n2)ccc1Cl [Example 186, 2-(4-Chloro-3-methoxyphenylamino)-4-trifluoromethyl-pyrimidine-5-carboxylic acid (tetrahydropyran-4-ylmethyl)-amide] | 20 to 300 nM | > 50% | 
20 | Cc1cc(Nc2ncc(C(=O)NCC3CCOCC3)c(C(F)(F)F)n2)ccc1Cl [Example 187, 2-(4-Chloro-3-methylphenylamino)-4-trifluoromethyl-pyrimidine-5-carboxylic acid (tetrahydropyran-4-ylmethyl)-amide] | 20 to 300 nM | > 50% | 
21 | CN(CC1CCC1)C(=O)c1cnc(Nc2cccc(Cl)c2)nc1C(F)(F)F [Example 188, 2-(3-Chlorophenylamino)-4-trifluoromethyl-pyrimidine-5-carboxylic acid cyclobutylmethyl-methyl-amide] | 20 to 300 nM | > 50% | 
22 | CN(CC1CCCCC1)C(=O)c1cnc(Nc2cccc(Cl)c2)nc1C(F)(F)F [Example 189, 2-(3-Chlorophenylamino)-4-trifluoromethyl-pyrimidine-5-carboxylic acid cyclohexylmethyl-methyl-amide] | 20 to 300 nM | > 50% | 
23 | CN(CC1CCCC1)C(=O)c1cnc(Nc2cccc(Cl)c2)nc1C(F)(F)F [Example 190, 2-(3-Chlorophenylamino)-4-trifluoromethyl-pyrimidine-5-carboxylic acid cyclopentylmethyl-methyl-amide] | 20 to 300 nM | > 50% | 
24 | O=C(NCC1CCC1)c1cnc(Nc2cc(Cl)ccc2F)nc1C(F)(F)F [Example 191, 2-(5-Chloro-2-fluorophenylamino)-4-trifluoromethyl-pyrimidine-5-carboxylic acid cyclobutylmethyl-amide] | 20 to 300 nM | > 50% | 
25 | O=C(NCC1CCC1)c1cnc(Nc2cc(F)cc(F)c2)nc1C(F)(F)F [Example 192, 2-(3,5-Difluorophenylamino)-4-trifluoromethyl-pyrimidine-5-carboxylic acid cyclobutylmethyl-amide] | 20 to 300 nM | > 50% | 
26 | O=C(NCC1CCC1)c1cnc(Nc2ccc(OC(F)(F)F)c(Cl)c2)nc1C(F)(F)F [Example 193, 2-(3-Chloro-4-trifluoromethoxyphenylamino)-4-trifluoromethyl-pyrimidine-5-carboxylic acid cyclobutylmethyl-amide] | 20 to 300 nM | > 50% | 
27 | O=C(NCC1CCC1)c1cnc(Nc2cccc(Cl)c2F)nc1C(F)(F)F [Example 195, 2-(3-Chloro-2-fluorophenylamino)-4-trifluoromethyl-pyrimidine-5-carboxylic acid cyclobutylmethyl-amide] | 20 to 300 nM | > 50% | 
28 | O=C(NCC1CCC1)c1cnc(Nc2ccc(C(F)(F)F)c(F)c2)nc1C(F)(F)F [Example 196, 2-(3-Fluoro-4-trifluoromethylphenylamino)-4-trifluoromethyl-pyrimidine-5-carboxylic acid cyclobutylmethyl-amide] | 20 to 300 nM | > 50% | 
29 | N#Cc1ccc(Nc2ncc(C(=O)NCC3CCC3)c(C(F)(F)F)n2)cc1Cl [Example 197] |  | > 50% | 
30 | O=C(NCC1CCC1)c1cnc(Nc2cccc(F)c2)nc1C(F)(F)F [Example 198, 2-(3-Fluorophenylamino)-4-trifluoromethyl-pyrimidine-5-carboxylic acid cyclobutylmethyl-amide] | 20 to 300 nM | > 50% | 
31 | O=C(NCC1CCC1)c1cnc(Nc2cccc(Br)c2)nc1C(F)(F)F [Example 199, 2-(3-Bromophenylamino)-4-trifluoromethyl-pyrimidine-5-carboxylic acid cyclobutylmethyl-amide] | 20 to 300 nM | > 50% | 
32 | O=C(NCC1CCC1)c1cnc(Nc2cccc(Cl)c2Cl)nc1C(F)(F)F [Example 200, 2-(2,3-Dichlorophenylamino)-4-trifluoromethyl-pyrimidine-5-carboxylic acid cyclobutylmethyl-amide] | 20 to 300 nM | > 50% | 
